One may read the IC50 as the concentration that gives 50% inhibition.

In ChEMBL document CHEMBL5113491, “Discovery of N-benzylarylamide derivatives as novel tubulin polymerization inhibitors capable of activating the Hippo pathway” (Eur J Med Chem, 2022) one finds IC50, Activity and inhibition data, which are given here for 1 molecule.

Structures are written as SMILES. The source made the active and inactive calls. The calls are words filed in the database; no cut-off is given here.

Assay type in all cases: functional, cell-based
One test deals with DU-145. In words: Antiproliferative activity against human DU-145 cells assessed as inhibition of cell growth measured after 48 hrs by MTT assay. The conditions noted are these: DU-145, 48 h. On the technique in general: Tetrazolium dyes change colour on reduction, which living cells bring about.
Another test concerns A549. In words: Antiproliferative activity against human A549 cells assessed as inhibition of cell growth measured after 48 hrs by MTT assay. The conditions noted are these: A549, 48 h.
A further test has as its system MCF7. In words: Antiproliferative activity against human MCF7 cells assessed as inhibition of cell growth measured after 48 hrs by MTT assay. Conditions: MCF7, 48 h.
Another test has as its system ECa-109 cell line. In words: Antiproliferative activity against human EC109 cells assessed as inhibition of cell growth measured after 48 hrs by MTT assay. The conditions noted are these: ECa-109, 48 h.
Test [1] relates to SGC-7901. In words: Antiproliferative activity against human SGC-7901 cells assessed as inhibition of cell growth measured upto 72 hrs by MTT assay. Conditions: dose 15-45 µmol/L, DDE = dose-dependent effect.
In test [2] the test system is MGC-803. In words: Downregulation of YAP protein expression in human MGC-803 cells measured after 48 hrs by Western blot analysis. Conditions: dose 15-45 nmol/L, DDE = dose-dependent effect. Background: Immunoblotting shows a protein as a band on a membrane.
In test [3] the test system is SGC-7901. In words: Inhibition of colony formation in human SGC-7901 cells measured after 7 days. Conditions: dose 6-30 nmol/L, time 7.0 day, DDE = dose-dependent effect.
The subject of test [4] is MGC-803. In words: Induction of cell cycle arrest in human MGC-803 cells assessed as increase in G2/M phase cells measured after 24 hrs by flow cytometry. The conditions noted are these: dose 15-45 nmol/L, DDE = dose-dependent effect. (In general: A flow cytometer gives signals particle by particle.)
Test [5] has as its system SGC-7901. In words: Induction of G2/M phase cell cycle arrest in human SGC-7901 cells assessed as decrease in p-cdc2 (T161) expression at 15 to 45 nmol/L measured after 48 hrs by Western blot analysis. Conditions: dose 15-45 nmol/L.
In test [6] the test system is MGC-803. In words: Induction of G2/M phase cell cycle arrest in human MGC-803 cells assessed as increase in p-Histone H3 expression at 15 to 45 nmol/L measured after 48 hrs by Western blot analysis. The conditions noted are these: dose 15-45 nmol/L.

`C/C=C/C(=O)N(Cc1ccc(OC)c(O)c1)c1cc(OC)c(OC)c(OC)c1`: the IC50 in the test with DU-145 was 81 nM; in the test on A549, 59 nM; in the test with MCF7 it was 67 nM; in the test with ECa-109 cell line, 85 nM. Also, the Activity result with SGC-7901 [1], in the test on MGC-803 [2] and with MGC-803 [4] was “Dde” throughout. Also, the inhibition entry in the test with SGC-7901 [3] was “Dde”. Further, the result in the test on SGC-7901 [5] and in the test on MGC-803 [6] was Active.
